Values joined by “and” are separate entries in the source; they are usually repeats but may differ in a detail not shown here. Identical values can stand only once. Like-named read-outs stand apart in the source and are kept apart here. Ends that are not written are not given here.
Key:
[1] = Biodistribution of peptide in excised organs; type: in vivo, mice; settings: excised organs 2 hours post injection, n=5
Method: To assess the biodistribution of peptide probe, mice (n=5) were sacrificed 2 hours after injection of 250 μL of 300 μM ALL*-Cy5.5 using a fluorescence imaging system (IVIS Spectrum, PerkinElmer, Mass.). The organs were harvested and imaged ex vivo. Mice injected with scrambled control peptide, QLE*-Cy5.5 and free dye Cy5.5 were imaged with the same filters and exposure time. Absence of auto fluorescence was confirmed in PBS injected mice. The amount of fluorescent signal in each organ was quantified as a percentage of total fluorescence signal (p/s) in each mouse. Ex vivo fluorescence images taken of internal organs as well as resected tumor 2 hours post injection of probes are shown in FIG. 10A. Free Cy5.5 dye and Cy5.5 labeled targeting and scrambled peptides accumulated most in the liver and kidneys of mice, followed by GI tract and spleen.

[2] = system: human HCC; test: Immunofluorescence on human liver biopsies ex vivo
Description: Specific peptide binding to human HCC was confirmed on patient biopsies (n=41) ex vivo from University of Michigan Hospital. […] Antibody staining of the same tissue confirmed minimal GPC3 expression, FIG. 15B. Binding by ALL*-Cy5.5 peptide and AF488-labeled anti-GPC3 antibody co-localized on normal liver specimen with Pearson's correlation coefficient of p=0.62, FIG. 15C. Co-stained regions were also imaged at 40×, FIG. 15D and 100× (dashed box in Panel D) magnifications, FIG. 15E.
Quantitative comparison of ALL*-Cy5.5 binding to human HCC with normal liver, adenoma and cirrhosis tissue was summarized in FIG. 15U.

[3] = system: Hep3B cells; test: Apparent association time constant on Hep3B cells by flow cytometry; type: binding, human
Method: The apparent association time constant (k) was also measured for the optimized GPC3 peptide to provide an assessment of how rapidly the peptide binds. The ALL*-Cy5.5 peptide reagent was incubated with Hep3B cells over time intervals ranging from 0 to 40 min. Fluorescence intensities were measured on flow cytometry. The median fluorescence intensity (y) was ratioed with that of Hep3B cells without addition of peptide reagent at different time points (t).

[4] = system: HepG2 human HCC cells; test: Confocal microscopy of peptide binding to HepG2 cells; type: cell-based
Method: (§1) FIGS. 6-2A-Q show validation of specific peptide binding to cells in vitro. […] The Hep3B versus SK-Hep1 difference was also larger for antibody than QLE (P=2.3×10^−8, 6.0-fold larger). Intensity was measured with 6 replicates per condition and fitted to an ANOVA model with terms for 9 means to log-transformed data. […] We further validated specific peptide binding to GPC3 using siRNA knockdown. […] Q) Quantified fluorescence intensities. The siCL vs siGPC3 difference was 7.4 times bigger for ALL than the same difference for QLE (P=7.8×10^−5), and the difference for antibody was 8.9 times bigger than for QLE (P=2.5×10^−5), by ANOVA on log-transformed data. Results are an average of 6 images collected independently.
(§2) On confocal microscopy, it was shown that ALL*-Cy5.5 binds to the surface (arrows) of cells with different levels of GPC3 expression. […] GPC3 is highly overexpressed in Hep3B cell cytosol and membrane while moderately expressed in HepG2 cells. No GPC3 expression is observed in SK-Hep1 cells. Tubulin serves as loading control for either cytosol or membrane fractions loaded.

[5] = system: SK-Hep1 xenograft tumors; test: Immunostaining on GPC3 negative SK-Hep1 xenograft sections; parameters: species or system mice; settings: no GPC3 expression
Description: FIGS. 18A-D show immunostaining on GPC3 negative HCC xenograft tumor.
The specimens were also sectioned for collection of confocal images to perform microscopic validation of peptide binding ex vivo.

[6] = system: Hep3B cells; test: Apparent dissociation constant on Hep3B cells by flow cytometry; type: binding, human
Method: The apparent dissociation constant (kd) was measured for the optimized GPC3 peptide to Hep3B cells to provide an assessment of peptide binding affinity. The ALL*-Cy5.5 peptide reagent was serially diluted in PBS at concentrations ranging from 0 to 200 nM in 25 nM increments and incubated with Hep3B cells. The mean fluorescence intensities was measured on flow cytometry. The equilibrium dissociation constant kd=1/ka was calculated by performing a least squares fit of the data to the non-linear equation I=(I0+Imaxka[X])/([…]). I0and Imax are the initial and maximum fluorescence intensities, corresponding to no peptide and at saturation, respectively, and [X] represents the concentration of the bound peptide.

[7] = system: GPC3 positive tumor (from Hep3B cells); test: In vivo whole body fluorescent imaging of HCC xenograft; settings: 2 hours post injection
Method: (§3) Mice bearing HCC xenograft tumor (arrowheads) were i.v. injected with 250 μL of 300 μM near NIR GPC3 targeting peptide ALL*-Cy5.5, scrambled control peptide QLE*-Cy5.5 and unlabeled Cy5.5 free dye alone. ALL*-Cy5.5 was also injected in mice bearing GPC3 negative tumor (from SK Hep-1 cells, arrows) as control of EPR effect. Pre-injection imaging confirmed no autofluorescence was present.

[8] = system: GPC3 positive tumor (from Hep3B cells); settings: mouse, in vivo, iv
Method: as §3

[9] = system: SK-Hep1 cells; test: Confocal microscopy of peptide binding to SK-Hep1 cells; type: cell-based, human
Method: as §1, §2

[10] = 41 patients, log-transformed data

## ALLANHEELFQT (SEQ ID NO: 1) peptide labeled with Cy5.5 via a GGGSK linker on the C-terminus (ALLANHEELFQTGGGSK-{Cy5.5}) [ALL*-Cy5.5]
[1]
  signal in the tumor vs scrambled probe, GPC3 negative tumor, free dye: significantly higher
[2]; [10]
  signal in HCC relative to adenoma: 2.48 fold
  signal in HCC relative to cirrhosis: 2.05 fold
  signal in HCC relative to normal: 3.43 fold
[2]; HCC tissue
  immunofluorescence staining: Strong intense staining
[2]; adenoma tissue
  immunofluorescence staining: Minimal staining
[2]; cirrhotic liver tissue
  immunofluorescence staining: moderate diffuse staining
[2]; human normal liver tissue
  immunofluorescence staining: negative staining
[3]
  apparent association time constant k: 0.11 min⁻¹
  onset of binding: 9.1 min
[3]; FIG. 8B legend
  apparent association time constant k: 0.11 min⁻¹
[4]; 6 replicates, log-transformed data
  intensity difference HepG2 versus SK-Hep1 relative to the same difference for QLE*: 3.3 fold
[4]; HepG2 cells, confocal microscopy
  fluorescence intensity from binding to cell surface: strong fluorescence intensity
[5]
  staining of xenograft sections: No staining
[6]
  Kd: 71 nM and 71.3 nM
[7]
  mean tumor signal vs scrambled peptide, GPC3 negative tumor and free dye: significantly higher
[7]; mean±SD
  target-to-background (T/B) ratio: 3.91±0.58
[8]
  time of peak uptake/signal post injection: 2 h
[9]
  fluorescence intensity from binding to cell surface: minimal signal

Reference: patent US11248022B2, “Glypican-3 peptide reagents and methods” (THE REGENTS OF THE UNIVERSITY OF MICHIGAN, priority 2017, dated 2022)
